{
  "source": "ChEMBL document CHEMBL4364276",
  "about": "“Discovery of 4-phenyl-2H-benzo[b][1,4]oxazin-3(4H)-one derivatives as potent and orally active PI3K/mTOR dual inhibitors” (Eur J Med Chem, 2019)",
  "key": {"PI3K p110 beta/p85 alpha": {"target": "PI3K p110 beta/p85 alpha (Homo sapiens, UniProt P42338)", "assay": "Inhibition of recombinant human full length N-terminal GST-tagged PI3Kbeta (1 to 1070 residues)/PIK3R1 (1 to 724 residues) expressed in baculovirus expression system using PIP2 as substrate incubated for 2 hrs by ADP-Glo assay"}, "[1]": {"target": "PI3-kinase p110-delta/p85-alpha (Homo sapiens, UniProt O00329)", "assay": "Inhibition of recombinant human full length N-terminal GST-tagged PI3Kdelta (1 to 1044 residues)/PIK3R1 (1 to 724 residues) expressed in baculovirus expression system using PIP2 as substrate incubated for 2 hrs by ADP-Glo assay"}, "[2]": {"assay": "Clearance in Sprague-Dawley rat at 1 mg/kg, iv measured upto 24 hrs by LC-MS/MS analysis", "type": "ADME, organism-based", "details": "in vivo"}, "[3]": {"target": "ALK tyrosine kinase receptor (Homo sapiens) (UniProt Q9UM73)", "assay": "Inhibition of human ALK at 100 nM using poly[Glu:Tyr] (4:1) as substrate by [gamma-33P]-ATP assay"}, "[4]": {"target": "Activin receptor type-1-like (Homo sapiens) (UniProt P37023)", "assay": "Inhibition of human ALK1 at 100 nM using casein as substrate by [gamma-33P]-ATP assay"}, "[5]": {"target": "Dual specificity tyrosine-phosphorylation-regulated kinase 1B (Homo sapiens) (UniProt Q9Y463)", "sequence (Q9Y463 whole entry, looked up)": "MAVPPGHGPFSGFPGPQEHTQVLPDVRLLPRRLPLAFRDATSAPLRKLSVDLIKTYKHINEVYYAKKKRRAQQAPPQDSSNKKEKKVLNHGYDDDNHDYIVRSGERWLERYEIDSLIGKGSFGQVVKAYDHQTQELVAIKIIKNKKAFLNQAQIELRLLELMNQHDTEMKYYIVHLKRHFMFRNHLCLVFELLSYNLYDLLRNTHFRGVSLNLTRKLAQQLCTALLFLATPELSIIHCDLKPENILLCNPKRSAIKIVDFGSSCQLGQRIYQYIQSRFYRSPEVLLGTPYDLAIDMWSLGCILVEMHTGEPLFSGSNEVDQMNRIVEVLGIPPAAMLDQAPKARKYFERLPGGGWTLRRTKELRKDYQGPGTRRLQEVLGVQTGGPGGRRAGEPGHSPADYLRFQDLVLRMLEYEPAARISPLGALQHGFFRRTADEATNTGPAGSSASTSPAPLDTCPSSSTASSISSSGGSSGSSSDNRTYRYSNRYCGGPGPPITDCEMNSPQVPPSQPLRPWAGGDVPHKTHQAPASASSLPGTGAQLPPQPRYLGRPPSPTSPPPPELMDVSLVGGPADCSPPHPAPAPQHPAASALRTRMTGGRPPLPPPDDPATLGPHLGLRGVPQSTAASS", "assay": "Inhibition of human DYRK1B at 100 nM using RRRFRPASPLRGPPK as substrate by [gamma-33P]-ATP assay"}, "[6]": {"target": "Ephrin type-A receptor 3 (Homo sapiens) (UniProt P29320)", "assay": "Inhibition of human EPHA3 at 100 nM using poly[Glu:Tyr] (4:1) as substrate by [gamma-33P]-ATP assay"}, "[7]": {"target": "Ephrin type-A receptor 4 (Homo sapiens) (UniProt P54764)", "sequence (P54764 whole entry)": "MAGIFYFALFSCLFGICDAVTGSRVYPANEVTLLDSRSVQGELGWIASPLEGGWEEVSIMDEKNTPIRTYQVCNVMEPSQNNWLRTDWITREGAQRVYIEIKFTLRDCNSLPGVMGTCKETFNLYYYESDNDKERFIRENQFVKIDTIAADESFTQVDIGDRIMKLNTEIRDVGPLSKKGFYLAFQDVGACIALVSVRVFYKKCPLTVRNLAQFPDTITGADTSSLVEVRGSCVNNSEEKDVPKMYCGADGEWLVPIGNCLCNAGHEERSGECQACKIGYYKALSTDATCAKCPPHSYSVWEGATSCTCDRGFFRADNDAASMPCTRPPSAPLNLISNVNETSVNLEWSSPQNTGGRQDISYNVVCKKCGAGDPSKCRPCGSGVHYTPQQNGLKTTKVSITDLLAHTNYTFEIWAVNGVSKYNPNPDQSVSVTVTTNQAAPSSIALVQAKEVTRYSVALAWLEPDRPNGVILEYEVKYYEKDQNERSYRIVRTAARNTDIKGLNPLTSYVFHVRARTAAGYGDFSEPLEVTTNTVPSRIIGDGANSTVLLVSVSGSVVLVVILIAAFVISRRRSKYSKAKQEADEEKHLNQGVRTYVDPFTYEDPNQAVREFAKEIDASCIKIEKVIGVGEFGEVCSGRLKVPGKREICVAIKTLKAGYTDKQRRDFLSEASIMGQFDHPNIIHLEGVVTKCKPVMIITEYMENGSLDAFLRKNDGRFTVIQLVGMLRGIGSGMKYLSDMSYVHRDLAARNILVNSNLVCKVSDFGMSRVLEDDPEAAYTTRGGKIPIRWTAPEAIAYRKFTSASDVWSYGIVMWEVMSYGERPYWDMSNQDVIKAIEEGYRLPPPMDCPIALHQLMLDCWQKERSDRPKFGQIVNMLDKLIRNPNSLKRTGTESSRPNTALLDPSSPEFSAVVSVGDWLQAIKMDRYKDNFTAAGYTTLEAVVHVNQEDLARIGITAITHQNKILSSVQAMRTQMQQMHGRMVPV", "assay": "Inhibition of human EPHA4 at 100 nM using poly[Glu:Tyr] (4:1) as substrate by [gamma-33P]-ATP assay"}, "[8]": {"target": "Ephrin type-A receptor 8 (Homo sapiens) (UniProt P29322)", "sequence (P29322 whole entry)": "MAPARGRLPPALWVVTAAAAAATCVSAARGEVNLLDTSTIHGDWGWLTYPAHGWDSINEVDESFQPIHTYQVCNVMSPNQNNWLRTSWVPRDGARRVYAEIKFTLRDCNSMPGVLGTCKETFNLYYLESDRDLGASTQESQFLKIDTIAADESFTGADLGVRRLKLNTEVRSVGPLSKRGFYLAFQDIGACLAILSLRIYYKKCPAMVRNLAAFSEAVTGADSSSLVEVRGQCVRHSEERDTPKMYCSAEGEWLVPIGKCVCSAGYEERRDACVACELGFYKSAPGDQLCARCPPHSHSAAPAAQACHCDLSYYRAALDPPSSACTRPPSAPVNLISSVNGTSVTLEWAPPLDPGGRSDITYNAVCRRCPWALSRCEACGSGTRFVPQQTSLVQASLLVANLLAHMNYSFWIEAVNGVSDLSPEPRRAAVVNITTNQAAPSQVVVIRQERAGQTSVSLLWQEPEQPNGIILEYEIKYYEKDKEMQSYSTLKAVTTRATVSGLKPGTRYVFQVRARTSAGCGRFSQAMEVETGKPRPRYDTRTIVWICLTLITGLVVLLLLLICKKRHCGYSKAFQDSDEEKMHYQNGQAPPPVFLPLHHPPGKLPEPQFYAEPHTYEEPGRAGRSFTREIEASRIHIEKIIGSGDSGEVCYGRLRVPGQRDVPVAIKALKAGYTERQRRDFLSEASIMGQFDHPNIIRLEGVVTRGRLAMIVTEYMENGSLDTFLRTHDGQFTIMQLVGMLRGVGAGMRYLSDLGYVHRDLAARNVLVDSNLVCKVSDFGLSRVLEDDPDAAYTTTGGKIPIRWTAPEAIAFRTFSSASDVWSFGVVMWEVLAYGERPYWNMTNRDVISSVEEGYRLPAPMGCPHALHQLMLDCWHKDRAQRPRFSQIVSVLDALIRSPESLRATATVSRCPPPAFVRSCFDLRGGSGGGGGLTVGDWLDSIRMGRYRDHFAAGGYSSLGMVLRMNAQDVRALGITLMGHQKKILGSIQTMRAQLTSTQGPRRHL", "assay": "Inhibition of human EPHA8 at 100 nM using poly[Glu:Tyr] (4:1) as substrate by [gamma-33P]-ATP assay"}, "[9]": {"target": "Mitogen-activated protein kinase 7 (Homo sapiens) (UniProt Q13164)", "sequence (Q13164 2-816 limits assumed)": "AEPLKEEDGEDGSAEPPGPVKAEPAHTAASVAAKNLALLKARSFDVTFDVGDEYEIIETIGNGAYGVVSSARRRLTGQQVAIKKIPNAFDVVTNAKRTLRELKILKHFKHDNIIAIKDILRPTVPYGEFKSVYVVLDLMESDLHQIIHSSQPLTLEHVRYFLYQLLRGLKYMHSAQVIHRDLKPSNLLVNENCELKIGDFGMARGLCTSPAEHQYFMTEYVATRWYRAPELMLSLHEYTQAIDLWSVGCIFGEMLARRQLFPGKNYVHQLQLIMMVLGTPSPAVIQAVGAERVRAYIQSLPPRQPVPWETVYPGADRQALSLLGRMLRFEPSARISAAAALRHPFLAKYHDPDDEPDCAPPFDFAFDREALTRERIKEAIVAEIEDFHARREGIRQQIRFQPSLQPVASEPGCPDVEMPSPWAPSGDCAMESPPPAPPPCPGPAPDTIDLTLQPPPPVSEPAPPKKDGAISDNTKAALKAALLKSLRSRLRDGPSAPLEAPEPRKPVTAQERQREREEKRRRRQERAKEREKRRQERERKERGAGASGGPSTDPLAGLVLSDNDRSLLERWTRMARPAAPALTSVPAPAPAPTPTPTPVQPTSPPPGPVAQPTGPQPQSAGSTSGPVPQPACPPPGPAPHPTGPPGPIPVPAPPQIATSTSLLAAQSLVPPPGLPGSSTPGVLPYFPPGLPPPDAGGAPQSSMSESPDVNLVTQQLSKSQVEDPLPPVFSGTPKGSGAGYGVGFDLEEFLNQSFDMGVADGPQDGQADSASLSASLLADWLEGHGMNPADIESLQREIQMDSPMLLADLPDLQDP", "assay": "Inhibition of human ERK5 at 100 nM using MBP as substrate by [gamma-33P]-ATP assay"}, "[10]": {"target": "Receptor-type tyrosine-protein kinase FLT3 (Homo sapiens) (UniProt P36888)", "assay": "Inhibition of human FLT3 at 100 nM using EAIYAAPFAKKK as substrate by [gamma-33P]-ATP assay"}, "[11]": {"target": "G protein-coupled receptor kinase 4 (Homo sapiens) (UniProt P32298)", "assay": "Inhibition of human GRK4 at 100 nM using casein as substrate by [gamma-33P]-ATP assay"}, "[12]": {"target": "Tyrosine-protein kinase ITK/TSK (Homo sapiens) (UniProt Q08881)", "assay": "Inhibition of human ITK at 100 nM using MBP as substrate by [gamma-33P]-ATP assay"}, "[13]": {"target": "Mitogen-activated protein kinase 9 (Homo sapiens) (UniProt P45984)", "assay": "Inhibition of human JNK2 at 100 nM using ATF2 as substrate by [gamma-33P]-ATP assay"}, "[14]": {"target": "Serine/threonine-protein kinase ICK (Homo sapiens) (UniProt Q9UPZ9)", "assay": "Inhibition of human LCK2 at 100 nM using MBP as substrate by [gamma-33P]-ATP assay"}, "[15]": {"target": "Mitogen-activated protein kinase kinase kinase 3 (Homo sapiens) (UniProt Q99759)", "assay": "Inhibition of human MEKK3 at 100 nM using MBP as substrate by [gamma-33P]-ATP assay"}, "[16]": {"target": "Misshapen-like kinase 1 (Homo sapiens) (UniProt Q8N4C8)", "assay": "Inhibition of human MINK1 at 100 nM using MBP as substrate by [gamma-33P]-ATP assay"}, "[17]": {"target": "Mitogen-activated protein kinase kinase kinase 9 (Homo sapiens) (UniProt P80192)", "sequence (P80192 whole entry, looked up)": "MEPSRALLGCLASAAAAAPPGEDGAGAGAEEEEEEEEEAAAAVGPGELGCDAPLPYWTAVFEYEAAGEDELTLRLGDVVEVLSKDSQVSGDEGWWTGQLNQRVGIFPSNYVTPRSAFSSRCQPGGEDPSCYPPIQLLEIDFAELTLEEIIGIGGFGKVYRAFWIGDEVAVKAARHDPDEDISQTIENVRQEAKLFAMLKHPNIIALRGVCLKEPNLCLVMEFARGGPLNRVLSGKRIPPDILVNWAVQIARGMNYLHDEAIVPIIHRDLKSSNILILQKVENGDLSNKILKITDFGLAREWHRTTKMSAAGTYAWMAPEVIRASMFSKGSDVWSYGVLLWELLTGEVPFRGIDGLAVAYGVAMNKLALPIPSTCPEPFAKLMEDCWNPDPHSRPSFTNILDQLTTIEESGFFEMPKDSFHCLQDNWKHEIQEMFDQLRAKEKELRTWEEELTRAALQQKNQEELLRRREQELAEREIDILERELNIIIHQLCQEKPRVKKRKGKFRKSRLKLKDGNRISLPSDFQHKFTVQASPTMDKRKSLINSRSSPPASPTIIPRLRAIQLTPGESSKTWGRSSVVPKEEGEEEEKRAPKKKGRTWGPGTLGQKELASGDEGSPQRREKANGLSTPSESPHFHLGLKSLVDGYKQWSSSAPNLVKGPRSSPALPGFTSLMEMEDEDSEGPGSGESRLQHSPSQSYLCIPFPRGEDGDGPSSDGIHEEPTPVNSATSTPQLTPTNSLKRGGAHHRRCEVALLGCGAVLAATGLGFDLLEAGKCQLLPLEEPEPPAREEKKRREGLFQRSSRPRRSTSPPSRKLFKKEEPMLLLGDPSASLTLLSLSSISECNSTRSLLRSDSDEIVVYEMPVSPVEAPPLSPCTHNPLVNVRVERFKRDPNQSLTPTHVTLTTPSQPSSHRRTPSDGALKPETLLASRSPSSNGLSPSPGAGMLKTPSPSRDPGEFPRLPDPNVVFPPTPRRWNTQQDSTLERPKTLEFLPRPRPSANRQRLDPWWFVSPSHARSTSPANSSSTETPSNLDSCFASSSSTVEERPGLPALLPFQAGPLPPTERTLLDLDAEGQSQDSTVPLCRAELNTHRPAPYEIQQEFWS", "assay": "Inhibition of human MLK1 at 100 nM using casein as substrate by [gamma-33P]-ATP assay"}, "[18]": {"target": "Serine/threonine-protein kinase Nek1 (Homo sapiens) (UniProt Q96PY6)", "assay": "Inhibition of human NEK1 at 100 nM using MBP as substrate by [gamma-33P]-ATP assay"}, "[19]": {"target": "Serine/threonine-protein kinase Nek7 (Homo sapiens) (UniProt Q8TDX7)", "assay": "Inhibition of human NEK7 at 100 nM using casein as substrate by [gamma-33P]-ATP assay"}, "[20]": {"target": "Ribosomal protein S6 kinase beta-2 (Homo sapiens) (UniProt Q9UBS0)", "sequence (Q9UBS0 whole entry)": "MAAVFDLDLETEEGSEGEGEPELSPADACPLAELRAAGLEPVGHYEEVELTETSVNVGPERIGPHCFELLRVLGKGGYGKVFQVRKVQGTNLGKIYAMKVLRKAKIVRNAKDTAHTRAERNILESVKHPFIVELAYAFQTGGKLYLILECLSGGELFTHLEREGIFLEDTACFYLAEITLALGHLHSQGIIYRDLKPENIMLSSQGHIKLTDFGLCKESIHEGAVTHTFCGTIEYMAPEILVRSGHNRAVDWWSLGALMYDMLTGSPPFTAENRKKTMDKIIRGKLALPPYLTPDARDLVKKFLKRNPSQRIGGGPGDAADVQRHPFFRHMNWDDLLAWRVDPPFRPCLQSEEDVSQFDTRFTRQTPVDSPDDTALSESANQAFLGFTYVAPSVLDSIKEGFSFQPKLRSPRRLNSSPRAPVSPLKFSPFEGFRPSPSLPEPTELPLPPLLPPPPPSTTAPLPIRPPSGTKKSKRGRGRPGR", "assay": "Inhibition of human p70S6Kb at 100 nM using KKRNRTLTK as substrate by [gamma-33P]-ATP assay"}, "[21]": {"target": "Serine/threonine-protein kinase PAK 6 (Homo sapiens) (UniProt Q9NQU5)", "assay": "Inhibition of human PAK6 at 100 nM using RRRLSFAEPG as substrate by [gamma-33P]-ATP assay"}, "[22]": {"target": "Protein kinase C beta type (Homo sapiens) (UniProt P05771)", "assay": "Inhibition of human PKCb2 at 100 nM using Histone H1 as substrate by [gamma-33P]-ATP assay"}, "[23]": {"target": "Protein kinase C delta type (Homo sapiens) (UniProt Q05655)", "assay": "Inhibition of human PKCdelta at 100 nM using ERMRPRKRQGSVRRRV as substrate by [gamma-33P]-ATP assay"}, "[24]": {"target": "RAF proto-oncogene serine/threonine-protein kinase (Homo sapiens) (UniProt P04049)", "assay": "Inhibition of human RAF1 at 100 nM using MEK1 as substrate by [gamma-33P]-ATP assay"}, "[25]": {"target": "Serine/threonine-protein kinase Sgk1 (Homo sapiens) (UniProt O00141)", "assay": "Inhibition of human SGK1 at 100 nM using KGSGSGRPRTSSFAEG as substrate by [gamma-33P]-ATP assay"}, "[26]": {"target": "Tyrosine-protein kinase Srms (Homo sapiens) (UniProt Q9H3Y6)", "assay": "Inhibition of human SRMS at 100 nM using poly[Glu:Tyr] (4:1) as substrate by [gamma-33P]-ATP assay"}, "[27]": {"target": "Serine/threonine-protein kinase 38 (Homo sapiens) (UniProt Q15208)", "assay": "Inhibition of human STK38 at 100 nM using KKRNRRLSVA as substrate by [gamma-33P]-ATP assay"}, "[28]": {"target": "Serine/threonine-protein kinase 38-like (Homo sapiens) (UniProt Q9Y2H1)", "assay": "Inhibition of human STK38L at 100 nM using KKRNRRLSVA as substrate by [gamma-33P]-ATP assay"}, "[29]": {"target": "Serine/threonine-protein kinase tousled-like 2 (Homo sapiens) (UniProt Q86UE8)", "assay": "Inhibition of human TLK2 at 100 nM using casein as substrate by [gamma-33P]-ATP assay"}, "[30]": {"target": "Eukaryotic translation initiation factor 2-alpha kinase 1 (Homo sapiens) (UniProt Q9BQI3)", "assay": "Inhibition of human EIF2AK1 at 100 nM using MBP as substrate by [gamma-33P]-ATP assay"}},
  "data": [
    {"smiles": "COc1ccc(N2C(=O)COc3ccc(-c4cnc(OC)c(NS(=O)(=O)c5ccc(F)cc5)c4)cc32)cc1", "values": [
      {"measurement": "IC50", "setting": "PI3K p110 beta/p85 alpha", "result": 94.5, "unit": "nM"},
      {"measurement": "IC50", "setting": "[1]", "result": 9.2, "unit": "nM"},
      {"measurement": "clearance", "setting": "[2]", "result": 8.56, "unit": "mL/min/kg"},
      {"measurement": "inhibition", "setting": "[3]", "result": 2.94, "unit": "%"},
      {"measurement": "inhibition", "setting": "[4]", "result": -8.35, "unit": "%"},
      {"measurement": "inhibition", "setting": "[5]", "result": 18.8, "unit": "%"},
      {"measurement": "inhibition", "setting": "[6]", "result": 20.6, "unit": "%"},
      {"measurement": "inhibition", "setting": "[7]", "result": 6.1, "unit": "%"},
      {"measurement": "inhibition", "setting": "[8]", "result": -2.71, "unit": "%"},
      {"measurement": "inhibition", "setting": "[9]", "result": -7.53, "unit": "%"},
      {"measurement": "inhibition", "setting": "[10]", "result": 16.6, "unit": "%"},
      {"measurement": "inhibition", "setting": "[11]", "result": 1.46, "unit": "%"},
      {"measurement": "inhibition", "setting": "[12]", "result": -1.21, "unit": "%"},
      {"measurement": "inhibition", "setting": "[13]", "result": 22.4, "unit": "%"},
      {"measurement": "inhibition", "setting": "[14]", "result": 7.92, "unit": "%"},
      {"measurement": "inhibition", "setting": "[15]", "result": 2.85, "unit": "%"},
      {"measurement": "inhibition", "setting": "[16]", "result": 9.96, "unit": "%"},
      {"measurement": "inhibition", "setting": "[17]", "result": 0.68, "unit": "%"},
      {"measurement": "inhibition", "setting": "[18]", "result": 19, "unit": "%"},
      {"measurement": "inhibition", "setting": "[19]", "result": 4.12, "unit": "%"},
      {"measurement": "inhibition", "setting": "[20]", "result": 22.3, "unit": "%"},
      {"measurement": "inhibition", "setting": "[21]", "result": 2.76, "unit": "%"},
      {"measurement": "inhibition", "setting": "[22]", "result": -6.74, "unit": "%"},
      {"measurement": "inhibition", "setting": "[23]", "result": 2.24, "unit": "%"},
      {"measurement": "inhibition", "setting": "[24]", "result": -0.03, "unit": "%"},
      {"measurement": "inhibition", "setting": "[25]", "result": -1.5, "unit": "%"},
      {"measurement": "inhibition", "setting": "[26]", "result": 14.2, "unit": "%"},
      {"measurement": "inhibition", "setting": "[27]", "result": 4.17, "unit": "%"},
      {"measurement": "inhibition", "setting": "[28]", "result": -2.59, "unit": "%"},
      {"measurement": "inhibition", "setting": "[29]", "result": -7.96, "unit": "%"},
      {"measurement": "inhibition", "setting": "[30]", "result": 3.42, "unit": "%"}
    ]}
  ]
}
